Measured values reported in ChEMBL document CHEMBL1201862, “PubChem BioAssay data set” (2004).
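In this assay, cells in 96-well plates receive the compound at five concentrations for 48 hours. Endpoints are linearly interpolated between the surrounding concentrations. GI50 = concentration required for 50% inhibition of growth.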 Active and inactive are the calls of the source. Cut-off read from the data, not from the text of the source: active = GI50 up to about 1.1 µM and inactive = higher.

How the values were obtained:
Assay in all cases: NCI tumour cell line growth inhibition, 48 h
ACHN = test system: ACHN
CAKI-1 = test system: CAKI-1
COLO 205 = test system: COLO 205
EKVX = test system: EKVX
HCT-116 = test system: HCT-116
HOP-62 = test system: HOP-62
M14 = test system: M14
MOLT-4 = test system: MOLT-4
Malme-3M = test system: Malme-3M
NCI-H226 = test system: NCI-H226
NCI-H23 = test system: NCI-H23
OVCAR-8 = test system: OVCAR-8
SF-268 = test system: SF-268
SF-539 = test system: SF-539
SN12C = test system: SN12C
SNB-75 = test system: SNB-75
SNB-78 = test system: SNB-78
U-251 = test system: U-251
Hs-578T = test system: Hs-578T
MDA-MB-435 = test system: MDA-MB-435

Measured: GI50

CC1(C)OC(=O)C(=C2CCC(C(=O)Nc3cccc(C(F)(F)F)c3)N2)C(=O)O1 (stereo unspecified)
inactive: ACHN 50.2 µM | CAKI-1 9.77 µM | COLO 205 > 100 µM | EKVX 50.6 µM | HCT-116 > 100 µM | HOP-62 > 100 µM | M14 64 µM | MOLT-4 26.7 µM | Malme-3M 50.1 µM | NCI-H226 91 µM | NCI-H23 > 100 µM | OVCAR-8 > 100 µM | SF-268 > 100 µM | SF-539 > 100 µM | SN12C > 100 µM | SNB-75 > 100 µM | SNB-78 87.7 µM | U-251 > 100 µM

O=C[C@]12CC=C3OC4OC5(CCCCC5)OC4[C@H]3[C@H]1C(=O)C=CC2=O (stereo partly specified)
inactive: ACHN 18.2 µM | CAKI-1 23 µM | EKVX 16.1 µM | HCT-116 19.9 µM | HOP-62 > 100 µM | M14 19 µM | MOLT-4 2.85 µM | Malme-3M 17.6 µM | NCI-H226 > 100 µM | NCI-H23 > 10 µM | OVCAR-8 17.6 µM | SF-268 8.71 µM | SF-539 3.55 µM | SN12C 52.8 µM | SNB-78 14.2 µM | U-251 22.7 µM

O=[N+]([O-])c1cccc(C2=NN(c3ccccc3)C[N+](c3ccc(Br)cc3)=N2)c1
inactive: ACHN 93.5 µM | CAKI-1 > 100 µM | COLO 205 > 100 µM | EKVX > 100 µM | HCT-116 97.1 µM | HOP-62 > 100 µM | M14 59 µM | MOLT-4 35.7 µM | Malme-3M > 100 µM | NCI-H23 > 100 µM | OVCAR-8 > 100 µM | SF-268 > 100 µM | SF-539 > 100 µM | SN12C > 100 µM | SNB-75 > 100 µM | SNB-78 34.4 µM | U-251 > 100 µM

COc1ccc(/C=N/N=C(\N)NO)cc1F
inactive: ACHN 10.1 µM | CAKI-1 14.5 µM | COLO 205 10.5 µM | EKVX 8.13 µM | HCT-116 27 µM | HOP-62 20.5 µM | M14 14.2 µM | MOLT-4 31.1 µM | Malme-3M 31 µM | NCI-H226 5.42 µM | NCI-H23 29.9 µM | OVCAR-8 25.9 µM | SF-268 17.1 µM | SF-539 21.9 µM | SN12C 26.7 µM | SNB-75 27.4 µM | SNB-78 97.3 µM | U-251 25 µM

O=C(CC1=Nc2nnc(-c3nnc4n3C(=O)C(CC(=O)c3cccnc3)=N4)n2C1=O)c1cccnc1
inactive: ACHN > 100 µM | CAKI-1 > 100 µM | COLO 205 > 100 µM | HCT-116 > 100 µM | HOP-62 > 100 µM | M14 > 100 µM | MOLT-4 > 100 µM | Malme-3M > 100 µM | NCI-H226 > 100 µM | NCI-H23 > 100 µM | SF-268 > 100 µM | SF-539 > 100 µM | SN12C > 100 µM | SNB-75 > 100 µM | SNB-78 > 100 µM | U-251 > 100 µM

CS(=O)(=O)N(CCC#N)c1ccc(/C=C2\N=C(c3ccccc3Cl)OC2=O)cc1
inactive: ACHN > 100 µM | CAKI-1 > 100 µM | COLO 205 > 100 µM | EKVX > 100 µM | HCT-116 > 100 µM | HOP-62 > 100 µM | M14 > 100 µM | MOLT-4 > 100 µM | Malme-3M > 100 µM | NCI-H226 > 100 µM | NCI-H23 > 100 µM | OVCAR-8 > 100 µM | SF-268 > 100 µM | SF-539 > 100 µM | SN12C > 100 µM | SNB-75 > 100 µM | SNB-78 > 100 µM | U-251 > 100 µM

O=C1/C(=C/c2ccccc2Cl)COc2ccccc21
inactive: ACHN 19.1 µM | COLO 205 21.7 µM | EKVX 16 µM | HCT-116 4.75 µM | HOP-62 16.9 µM | MOLT-4 5.79 µM | Malme-3M 15.5 µM | NCI-H23 19.1 µM | OVCAR-8 17.2 µM | SF-268 17.5 µM | SF-539 17.3 µM | SNB-75 18 µM | SNB-78 19.3 µM | U-251 13.7 µM

O=c1ccc2[n+]([O-])c3ccc(O)cc3oc-2c1 [RESAZURIN]
inactive: ACHN 5.65 µM | CAKI-1 32.5 µM | COLO 205 12.9 µM | EKVX 28.8 µM | HCT-116 16.7 µM | HOP-62 18.7 µM | Hs-578T 7.53 µM | M14 7.83 µM | MDA-MB-435 1.89 µM | MOLT-4 13.7 µM | Malme-3M 4.02 µM | NCI-H226 21.1 µM | NCI-H23 2.56 µM | OVCAR-8 15 µM | SF-268 19.2 µM | SF-539 15.9 µM | SN12C 18.2 µM | SNB-75 3.45 µM | U-251 9.68 µM
